# Test results taken from patent publication US20240277641A1, “METHODS FOR TREATING NERVOUS SYSTEM DISORDERS WITH […] AGENTS” (PAXMEDICA, INC., priority 2021, published 2024).
# Read-outs that look alike come from different tables or passages of the source.
# Columns and labels:
# [1] = system: mouse model of epilepsy; conditions: cited from earlier work
# [2] = system: male children with Autism Spectrum Disorder (ASD); assay: Adverse effects in the ASD trial; type: in vivo, human
# Method: (§1) This is the first time that multiple doses were studied in patients with neurodevelopmental disorders, and where they were observed over a long term duration. Previously, only a single 20 mg/kg dose had been described in an ASD study. See, R. K. Naviaux, “Antipurinergic therapy for autism—An in-depth review”, Mitochondrion 43, pp. 1-15 (2018), available online Dec. 16, 2017.
# Since only predose, 1 hour post dose, and before the next dose administration samples were collected, it was not possible to determine the exact distribution and elimination curves and therefore extrapolated parameters such as AUC0-∞ and T1/2 were not determinable.
# [3] = Suramin plasma pharmacokinetics in three-arm, randomized, double blind, placebo-controlled trial, intravenous infusion; type: in vivo, human; conditions: for Plasma Concentration / AUCInterval / AUCinterval/Dose / Cmax/Dose / Cmin / AUCOverall / AUCVisit 4 / AUCVisit 5 / AUCVisit 7 / Cmin, Visit 5 / Cmin, Visit 7 / Cmin. overall / Cmax / concentration at 28 day: mean; for half-life / Cmax / concentration at 28 day: male, human, plasma; for half-life: intravenous; for concentration at 28 day: read-out: Cmin, Visit 4
# From the text: The following Table 2 outlines the visit schedule:
# A non-compartmental pharmacokinetic (PK) approach consistent with the intravenous route of administration was used to estimate PK parameters in Watson LIMS software (version 7.5). […] All concentration values were in μg/mL, and all time points were in days as provided by the bioanalytical testing facility. Nominal dose concentrations and sampling times were used. The area under the plasma concentration-time curve (AUC) estimations were calculated on profiles having at least a quantifiable post-dose and pre-dose prior to the next dosing occasion. The observed maximum plasma concentration (Cmax) and time of Cmax (Tmax) were determined directly from the data.
# Pharmacokinetic parameters were estimated using a non-compartmental approach consistent with intravenous infusion route of administration.
# For area under the curve (AUC) estimation, measured plasma concentration for post dose and pre dose before the next dosing event were needed. For this study, samples for pharmacokinetic analysis were collected on days 1, 28, 56, and 96.
# Whenever possible, standard deviation and coefficient of variation were determined by Watson LIMS software. For analyses that were not supported by Watson (i.e. custom comparisons), Excel was used and the statistics reported as determined by excel algorithms. Note that in either case, when the number of data points was less than three, standard deviation and coefficient of variation could not be calculated.
# The route of administration was intravenous infusion over a 30 minute period on visits 2, 4, and 5.
# [4] = cited from earlier work
# [5] = system: male children with Autism Spectrum Disorder (ASD); assay: Efficacy by Aberrant Behavior Checklist (ABC) versus suramin blood levels in the ASD trial; type: in vivo, human; conditions: 10 or 20 mg/kg IV
# Method: as §1
# Each study participant attended a total of 7 visits, screening period (Visit 1.14 days), Randomization visit (Visit 2 day 1), treatment follow up visits (visit 3; day 14), treatment visit (visit 4; Day 28), treatment visit (visit 5; Day 56), End of treatment visit (visit 6; Day 77) and EOS (visit 7; day 98). Window period for screening until visit 2 will be ±14 days (thus the study procedures can be performed over 14 days) and for visit 2 onwards will be ±2 days (thus the procedures can be performed over 5 days) (Visit 2 to 7).
# [6] = 10 mg/kg to 20 mg/kg dose range
# [7] = Table 3A, 10 mg dose group, IV, children
# [8] = Table 3C, 20 mg dose group, IV, children
# [9] = Table 7, 10 mg/kg Dose, n = 13, IV
# [10] = Table 7, 20 mg/kg Dose, n = 14, IV
smiles,measurement,setting,value
"O=C(NCC1(N2CCN(c3ccccc3)CC2)CCOCC1)c1cccnc1Sc1ccccc1 [JNJ-47965567, 2-(Phenylthio)-N-[[tetrahydro-4-(4-phenyl-1-piperazinyl)-2H-pyran-4-yl]methyl]-3-pyridinecarboxamide]",epileptic seizures,[1],suppress epileptic seizures
"Cc1ccc(C(=O)Nc2ccc(S(=O)(=O)O)c3cc(S(=O)(=O)O)cc(S(=O)(=O)O)c23)cc1NC(=O)c1cccc(NC(=O)Nc2cccc(C(=O)Nc3cc(C(=O)Nc4ccc(S(=O)(=O)O)c5cc(S(=O)(=O)O)cc(S(=O)(=O)O)c45)ccc3C)c2)c1 [suramin, 1,3,5-Naphthalenetrisulfonic acid, 8,8′-[carbonylbis[imino-3,1-phenylenecarbonylimino(4-methyl-3,1-phenylene)carbonylimino]]bis-]",adverse effects such as visible rash or vomiting,[2]; 10 mg/kg dose group,only one event
same,adverse effects such as visible rash or vomiting,[2]; 20 mg/kg dose group,occurred mostly in the 20 mg/kg dose group
same,Plasma Concentration,"[3]; 10 mg/kg IV, visit 2, day 1, 1 h post-infusion",229000 ng/mL
same,Plasma Concentration,"[3]; 10 mg/kg IV, visit 4, day 28, 1 h post-infusion",157000 ng/mL
same,Plasma Concentration,"[3]; 10 mg/kg IV, visit 4, day 28, pre-dose",4310 ng/mL
same,Plasma Concentration,"[3]; 10 mg/kg IV, visit 5, day 56, 1 h post-infusion",164000 ng/mL
same,Plasma Concentration,"[3]; 10 mg/kg IV, visit 5, day 56, pre-dose",7960 ng/mL
same,Plasma Concentration,"[3]; 10 mg/kg IV, visit 7, day 96, EOS",7870 ng/mL
same,Dose proportionality of AUC0-96,[3]; [6],nearly dose proportional
same,Dose proportionality of Cmax,[3]; [6],less than dose proportional
same,Plasma Concentration,"[3]; 20 mg/kg IV, visit 2, day 1, 1 h post-infusion",328000 ng/mL
same,Plasma Concentration,"[3]; 20 mg/kg IV, visit 4, day 28, 1 h post-infusion",327000 ng/mL
same,Plasma Concentration,"[3]; 20 mg/kg IV, visit 4, day 28, pre-dose",11000 ng/mL
same,Plasma Concentration,"[3]; 20 mg/kg IV, visit 5, day 56, 1 h post-infusion",332000 ng/mL
same,Plasma Concentration,"[3]; 20 mg/kg IV, visit 5, day 56, pre-dose",21100 ng/mL
same,Plasma Concentration,"[3]; 20 mg/kg IV, visit 7, day 96, EOS",23400 ng/mL
same,AUCInterval,[3]; [7],4780 µg·days/mL
same,AUCinterval/Dose,[3]; [7],478 µg·days/mL/mg
same,Cmax/Dose,[3]; [7],24.4 µg/mL/mg
same,Cmin,[3]; [7],4300 ng/mL
same,AUCInterval,[3]; [8],9510 µg·days/mL
same,AUCinterval/Dose,[3]; [8],475 µg·days/mL/mg
same,Cmax/Dose,[3]; [8],18.3 µg/mL/mg
same,Cmin,[3]; [8],10600 ng/mL
same,AUCOverall,[3]; [9],4600.0 µg·days/mL
same,AUCVisit 4,[3]; [9],1195.6 µg·days/mL
same,AUCVisit 5,[3]; [9],1386.7 µg·days/mL
same,AUCVisit 7,[3]; [9],2017.7 µg·days/mL
same,AUCinterval/Dose,[3]; [9],460.0 µg·days/mL/mg
same,Cmax/Dose,[3]; [9],18.1 µg/mL/mg
same,"Cmin, Visit 5",[3]; [9],7700 ng/mL
same,"Cmin, Visit 7",[3]; [9],7700 ng/mL
same,Cmin. overall,[3]; [9],4400 ng/mL
same,AUCOverall,[3]; [10],10203.6 µg·days/mL
same,AUCVisit 4,[3]; [10],2431.4 µg·days/mL
same,AUCVisit 5,[3]; [10],3121.4 µg·days/mL
same,AUCVisit 7,[3]; [10],4650.7 µg·days/mL
same,AUCinterval/Dose,[3]; [10],510.1 µg·days/mL/mg
same,Cmax/Dose,[3]; [10],18.0 µg/mL/mg
same,"Cmin, Visit 5",[3]; [10],21900 ng/mL
same,"Cmin, Visit 7",[3]; [10],24200 ng/mL
same,Cmin. overall,[3]; [10],10600 ng/mL
same,half-life,"[3]; 10 mg low dose level, inferred from lack of accumulation",< 28 days
same,half-life,"[3]; 20 mg high dose level, inferred from accumulation",> 28 days
same,Cmax,"[3]; Table 3A, 10 mg dose group, IV, children, read-out: Cmax",244000 ng/mL
same,Cmax,"[3]; Table 3C, 20 mg dose group, IV, children, read-out: Cmax",365000 ng/mL
same,Cmax,"[3]; Table 7, 10 mg/kg Dose, n = 13, IV, read-out: Cmax, Oveall",181000 ng/mL
same,concentration at 28 day,[3]; [9],4400 ng/mL
same,Cmax,"[3]; Table 7, 20 mg/kg Dose, n = 14, IV, read-out: Cmax, Oveall",359000 ng/mL
same,concentration at 28 day,[3]; [10],10900 ng/mL
same,"half-life, average",[4]; average,50 days
same,oral bioavailability,"[4]; in vivo, po",poor oral bioavailability
same,change in ABC scores from baseline versus exposure,[5],A greater change in ABC scores from baseline was observed with lower exposures
same,correlation between blood levels and efficacy (ABC),[5]; multiple doses,dynamic nonlinear correlation between antipurinergic blood levels and efficacy
